Measured values: patent publication US20100249231A1, “HSP90 Inhibitors of Protein-Protein Interaction HSP90 Chaperone Complexes and Therapeutic Uses Thereof” (THE OHIO STATE UNIVERSITY RESEARCH FOUNDATION, priority 2007, published 2010)
Peptide text beside a SMILES is read from it. * marks the point of attachment. Cbz = O=C(OCc1ccccc1)*

What was measured:
[1] = tested on: Cdk4; experiment: Western blot of Hsp90 client protein Cdk4 in Panc-1 cells; assay type: cell-based, human; conditions: for level of Cdk4 protein: 10 μM proteasome inhibitor, 24 h
Protocol: (§1) The levels of Akt and Cdk4, two well-known Hsp90 clients, were measured. Celastrol decreased the protein levels of Akt and Cdk4 in a concentration- and time-dependent manner.
(§2) Western Blot. The general procedure for the Western blot analysis was briefly described as follows. After drug treatment, cells were washed twice with ice-cold phosphate-buffered saline (PBS), scraped into lysis buffer (20 mM Tris, pH 7.5, 1% Nonidet P-40, 150 mM NaCl, 5 mM EDTA, 1 mM Na3VO4) supplemented with a protease inhibitor mixture (Sigma, added at a 1:100 dilution), and incubated on ice for 20 min. The lysate was then centrifuged at 14,000×g for 10 min. Equal amounts of total protein were subjected to SDS-PAGE and transferred onto nitrocellulose membranes and probed with appropriate antibodies.

[2] = tested on: Akt; experiment: Western blot of Hsp90 client protein Akt in Panc-1 cells; assay type: cell-based, human; conditions: for level of Akt protein: 10 μM proteasome inhibitor, 24 h
Protocol: as §1, §2

[3] = tested on: Panc-1 cells; experiment: MTS assay; conditions: read-out: IC50 (cytotoxicity, MTS), 24 h
Protocol: MTS Assay. The human Panc-1 cells were seeded in 96-well plates at a density of 3000-5000 cells per well. […] Number of viable cells was assessed by MTS assay after 24 h. The IC50 values for cytotoxicity were calculated with WinNonlin software (Pharsight, Mountain View, Calif.).

[4] = tested on: RIP1-Tag2 transgenic pancreatic cancer mouse model; experiment: RIP1-Tag2 transgenic pancreatic cancer mouse model; assay type: in vivo, mice
Description: To further evaluate the anticancer efficacy of celastrol against pancreatic cancer, the inventors utilized celastrol to inhibit tumor growth in a RIP1-Tag2 transgenic pancreatic cancer mouse model. In this mouse model, hyperplastic islets begin to appear by 3-4 weeks of age, and solid tumors emerge in pancreas at about 8-9 weeks. The cancer will metastasized into other sites such as mesenterium in the peritoneal cavity from 10-12 weeks.
RIP1-Tag2 Transgenic Mouse Model. RIP1-Tag2 transgenic mice used contained the insulin promoter-driven SV40 T-antigen and produced spontaneous multifold and multistage pancreatic islet tumors. RIP1-Tag2 positive mice were identified by PCR analysis of genomic DNA from tail biopsy. […] After 4 weeks of injection, mice of each group were sacrificed by CO2 and tumors were isolated and saved. The remaining mice were kept to calculate the survival rate.

[5] = tested on: Hsp90; experiment: Western blot of Hsp90 protein levels; assay type: cell-based, human
Protocol: as §2

[6] = tested on: Panc-1 xenograft tumor; experiment: Panc-1 xenograft mouse model; assay type: in vivo, mice; conditions: 3 mg/kg i.p.; for inhibition of tumor growth: after the last injection
Protocol: After the last injection, celastrol inhibited 80% of tumor growth (p<0.001) (FIG. 6A).
Xenograft Mouse Model. 4 to 6-week old nu/nu athymic female mice were obtained from Charles River Laboratories (Charles River, Wilmington, Mass.). The human Panc-1 cells (5-10×10^6) were mixed with reconstituted basement membrane (Collaborative Research, Bedford, Mass.) and implanted to the right and left flanks of the mice. Tumor volumes were calculated with the formula: width^2×length/2. When tumors reached 100 mm^3, animals were randomized into different groups for treatment (n=6/group).
Then, the dosing schedule was changed to one injection per three days. Tumor sizes and body weights were measured twice a week.

[7] = 3 mg/kg i.p. once every 3 days for four weeks, at 12th week

Row | Compound | level of Cdk4 protein [1] | level of Akt protein [2] | IC50 [3] [µM] | survival increase over control ([4]; 3 mg/kg i.p.) [days] | decrease of tumors in pancreas compared to the control group [4, 7] [%] | other results
1 | CC(=O)N[C@@H](CSC(=O)[C@]1([C@@H](O)C(C)C)NC(=O)[C@H](C)[C@@H]1O)C(=O)O [lactacystin] | did not change the levels | did not change the levels | – | – | – | –
2 | COC1=C2C[C@@H](C)C[C@H](OC)[C@H](O)[C@@H](C)/C=C(\C)[C@H](OC(N)=O)[C@@H](OC)/C=C\C=C(/C)C(=O)NC(=CC1=O)C2=O [geldanamycin, reference compound] | – | – | 8 | 6 | 13 | decrease of metastatic tumors in mesenterium compared to the control group [4, 7]: 50%
3 | CC1=C(O)C(=O)C=C2C1=CC=C1[C@@]2(C)CC[C@@]2(C)[C@@H]3C[C@](C)(C(=O)O)CC[C@]3(C)CC[C@]12C [celastrol, (9b,13a,14b,20a)-3-Hydroxy-9,13-dimethyl-2-oxo-24,25,26-trinoroleana-1(10),3,5,7-tertraen-29-oic acid] | – | – | 3 | 12 | 30 | decrease of Cdk4 protein level ([1]; 5 μM, 24-h treatment): 70%; median survival time ([4]; 3 mg/kg i.p.): 96 days; weight loss ([4]; 3 mg/kg i.p., RIP1-Tag2 mice): about 10%; effect on Hsp90 protein levels [5]: no effect; decrease of Akt protein level ([2]; 5 μM, 24-h treatment): 80%; inhibition of tumor growth [6]: 80%; inhibition of tumor growth ([6]; listed as Celastrol): more than 80%; weight loss in mice ([6]; xenograft mice): 5%
4 | CC(C)C[C@@H](C=O)NC(=O)[C@H](CC(C)C)NC(=O)[C@H](CC(C)C)NC(=O)OCc1ccccc1 [MG132] (Cbz-Leu-Leu-Leu-aldehyde) | did not change the levels | did not change the levels | – | – | – | –
